From patent US20100323434A1, “Compartmentalized Nerve Culture System” (priority 2009, published 2010)

Legend:
[1] = tested on: Primary hippocampal neurons; assay: Oxidative stress by H2O2 added selectively to the somal compartment of the microfluidic device; type: cell-based; conditions: added to somal compartment of one group of neuronal cell bodies (2 mM peroxide media); over the course of 24-72 h
[2] = tested on: Dorsal root ganglia (DRG) neuronal cultures; type: cell-based, rats; conditions: rat, 24 h, 25 ng/mL
From the text: A two-step photolithographic process was utilized to create the master mold. Silicon wafers (University Wafer, MA) were coated with SU-8 2002 (Microchem; MA), spun, and soft baked using parameters specified by the manufacturer to yield a resist thickness of 2.5 microns. An array of microchannels, each with dimensions: width=10 microns, length=500 microns, were defined by UV light exposure through a high resolution DPI transparency (Cad/Art, OR). The exposed substrate was once again baked, to enhance polymer cross-linking post exposure, and developed as stated in the resist technical sheet to fully define the microchannels. […]
In order to identify the susceptibility of axons and cell bodies to paclitaxel, we added 25 ng/mL of paclitaxel to either axon or cell body chambers and continued to culture the DRGs for another 24 hours. Once images of the fluorescently labeled cells and axons were captured, we used ImageJ to calculate axon lengths and calculated percent change in axon length compared to 24 hours before taxol exposure.
Studies on the neuroprotective effect of EPO were performed with concurrent administration of paclitaxel, which was applied to either the neuronal cell body or axonal side. […] Axon degeneration was defined as the change in axon length over the total axon length expressed as a percentage.

| decrease in the length of axons [2] | SMILES | neuronal cell death and axonal degeneration [1] |
| --- | --- | --- |
|  | OO [H2O2] | induction of neuronal cell death and accompanying axonal degeneration |
| 28.6 ± 11.2% | CC(=O)O[C@H]1C(=O)[C@@]2(C)[C@H]([C@H](OC(=O)c3ccccc3)[C@]3(O)C[C@H](OC(=O)[C@H](O)[C@@H](NC(=O)c4ccccc4)c4ccccc4)C(C)=C1C3(C)C)[C@]1(OC(C)=O)CO[C@@H]1C[C@@H]2O [paclitaxel, Paclitaxel, reference compound] |  |
